Data taken from a melting point compilation (Tetko et al.; mined from patent text by program, amines drawn as free bases though some values may be those of a salt).

Row | SMILES | melting point [°C]
1 | c1c(N2CCCC2)nc(NC23CC4CC(CC(C4)C2)C3)nc1N1CCNCC1 | 160 to 164
2 | O=Cc1coc2cc(OCCCN3CCC(c4noc5cc(F)ccc45)CC3)ccc2c1=O | 163 to 165
3 | CCOC(=O)c1c(C)cc2c(c1C)C(=O)OCC2=O | 142 to 144
4 | CS(=O)(=O)c1ccc(-c2cnn(-c3cccc(Cl)c3)c(=O)c2Oc2ccc(F)cc2)cc1 | 211 to 213
5 | CC1N(C)C=C([N+](=O)[O-])N1CCOC(=O)Nc1cccc(C(N)=O)c1 (stereo unspecified) | 207
6 | c1ccc(NC[C@@H]2N[C@H]2c2ccccc2)cc1 (relative stereo) | 96 to 97
7 | Nc1cccc(-c2ccnc3c(Br)cnn23)c1 | 120 to 121
8 | CC(C)Cn1c(CNC(=O)OC(C)(C)C)c(-c2ccc(Cl)cc2)c2cc(O)ccc2c1=O | 220 to 221
9 | CC(=O)Nc1cccc(-c2ccccc2S(=O)(=O)Nc2onc(C)c2C)c1 | 168 to 171
10 | CC(C)(O)C1CCC(CNC(=O)c2cccnc2Oc2ccc(F)cc2)CC1 (stereo unspecified) | 78 to 80
11 | CC(C)(C)c1ccc(S(=O)(=O)N2c3ccccc3C[C@H]2C(=O)NCc2ccc(NCC(=O)O)cc2)cc1 | 110
12 | N#CC1=C(c2ccccc2)Nc2n[nH]cc2C1c1cccc(F)c1F (stereo unspecified) | 165
13 | Cn1nc(-c2ccccc2)c(CNc2ccccc2C(=O)O)c1Cl | 192 to 193
14 | CCc1nc(-c2ccc(/C=C/C3(O)CN4CCC3CC4)cc2)no1 (stereo unspecified) | 158 to 160
15 | O=C(NC1CCN(CCc2ccc(F)cc2)C1)C12CC3CC(CC(C3)C1)C2 (stereo unspecified) | 114 to 116
16 | O=C(c1ccccc1Cl)c1cc2c(cc1NC=C[N+](=O)[O-])CCC2 | 225 to 226
17 | Cc1ccc(C(N)=O)cc1NC(=O)COCCO | 118 to 119
18 | C=C(C)C(=O)NCCCNC(=O)OC(C)(C)C | 85.8
19 | CCOC(=O)C(Cc1ccc(OCCN2CCC(C)(C)c3cc(C(=O)c4ccccc4)ccc32)cc1)Nc1ccccc1C(=O)c1ccccc1 (stereo unspecified) | 75 to 77
20 | CNc1ccc2c(c1N)C(=O)OC21c2cc(F)c(O)cc2Oc2cc(O)c(F)cc21 | 265
21 | CCCCc1nn(Cc2ccc(C(=O)O)cc2)c2ccccc2c1=O | 220
22 | Cc1cccc(C(N)=O)c1Nc1nc(Nc2ccc3c(c2)N(C(C)C)C(=O)CCC3)ncc1Cl | 140 to 160
23 | O=C(Cc1cccc2ccccc12)N[C@H]1C[C@H](C(=O)O)Nc2cc(Cl)cc(Cl)c21 (relative stereo) | 257 to 258
24 | COc1cc(O)c(CN(CCc2ccc([N+](=O)[O-])cc2)C(=O)OC(C)(C)C)c(OC)c1 | 134

Row | SMILES | melting point [°C]
25 | O=C(c1ccc(Cl)cc1)c1cc([N+](=O)[O-])ccc1N1CCC(Cc2ccccc2)CC1 | 211
26 | CC(C)N(CCN(C(=O)N(C)C)c1cccc(N)n1)C(C)C | 86 to 88
27 | COCCNC(=O)c1cc2c(ccc3cnn(C[C@H](C)N)c32)o1 | 75 to 76
28 | COc1ccc2c3c(c(=O)oc2c1)CN(Cc1ccc(Cl)cc1)CC3 | 140 to 142
29 | Cc1cccc(C#C[C@@]2(O)CCC[C@@H](NC(=O)c3ccco3)C2)c1 | 139 to 142
30 | CCCCc1nc2ccccc2n1Cc1ccc(C(=O)O)cc1 | 229 to 231
31 | Cc1nc(C[C@H]2CC[C@@](C)(NCC(=O)N3C[C@@H](F)C[C@H]3C#N)C2(C)C)no1 | 121 to 123
32 | CC(=O)c1cccc(NC(=O)c2nnnn2Cc2ccccc2)c1O | 155 to 157
33 | O=C(NC(CC12CC3CC(CC(C3)C1)C2)NC(=N[N+](=O)[O-])Nc1cccnc1)c1ccc(Cl)cc1 (stereo unspecified) | 219 to 220
34 | CC(=O)CC(=O)N[C@@H](CC(=O)O)C(=O)O | 127 to 130
35 | CCCc1nc2nccc(C)c2[nH]1 | 110 to 112
36 | CS(=O)(=O)c1ccc(-c2cnn(-c3ccc(F)c(F)c3)c(=O)c2Oc2ccc(F)cc2)cc1 | 178 to 180
37 | COc1ccccc1-c1ccc(C[C@H](NC(=O)c2c(Cl)cccc2Cl)C(=O)O)cc1C(C)=O | 87 to 89
38 | O=C(O)Cc1ccccc1SCc1cc(F)ccc1F | 106 to 108
39 | CS(=O)(=O)c1ccc(-c2cnn(Cc3ccc([N+](=O)[O-])cc3)c(=O)c2-c2ccc(F)cc2)cc1 | 183 to 184
40 | CCOC(=O)c1cc(C(=O)c2ccccc2Cl)c(-n2c(C)nnc2CNC(=O)c2cc3ccccc3[nH]2)s1 | 135 to 140
41 | Oc1ccc(OCc2ccccc2)c2c1OCCO2 | 131
42 | CC(C)(C)c1cc(-c2nn(CC(F)(F)C(F)F)c3ncccc23)cc(C(C)(C)C)c1O | 105 to 106
43 | COC1=NS(=O)N=C1NCCCCC#CCN1CCCCC1 (stereo unspecified) | 134 to 136
44 | CCOC(=O)C1(CC(=O)O)N=C(c2ccc(Cl)cc2)c2c(sc(C)c2C)-n2c(C)nnc21 (stereo unspecified) | 198 to 202
45 | O=C(Nc1cc(C(=O)NCCc2ccccc2)ccc1O)C(=O)Nc1cc(Cl)cc(Cl)c1O | 265
46 | O=C(c1ccc(OCC2CC2)c2oc3ccccc3c12)[NH+]([O-])c1cccnc1 (stereo unspecified) | 272 to 275
47 | CC(C)(C)c1cc(CCC(=O)NCCNc2c(Cl)c(Cl)nc(Cl)c2C#N)cc(C(C)(C)C)c1O | 185 to 189
48 | COc1ccc(C2(C)C(=O)c3c(N4CCN(C)CC4)cc(Cl)cc3N(Cc3ccccc3)C2=O)cc1 (stereo unspecified) | 66 to 67

Row | SMILES | melting point [°C]
49 | CC(C)S(=O)(=O)c1cnc2c(c1)nc(CC(C)(C)C)n2CCN(C)C | 119
50 | COc1ccccc1SC(CC(C)C)c1c(O)cc(-c2ccccc2)oc1=O (stereo unspecified) | 75 to 78
51 | Cc1cc(-n2ccnc2)c2cccc(OCc3c(Cl)ccc(S(=O)(=O)N4CCCC4C(=O)NCC4CCN(CCC(=O)OC(C)(C)C)CC4)c3Cl)c2n1 (stereo unspecified) | 92
52 | CCN(CC)C(=O)Oc1c(N2CCCC2)c(=O)n(-c2ccccc2)c2ncccc12 | 158 to 160
53 | CCN(C(=O)N1CCN(c2cc(C)cc(C)c2)CC1)c1nc(C)c(C)nc1OC | 68 to 70
54 | COc1ccc(NC(=O)c2ccc(Br)o2)cc1N1CCN(C)CC1 | 125 to 127
55 | CN1CCC(c2c[nH]c3ccc(-n4ccnc4)cc23)CC1 | 217
56 | Cc1cc(O)c(SCc2cccc3ccccc23)c(=O)o1 | 170
57 | CCOP(=O)(CC(=O)N1c2ccccc2NC(=O)c2ccccc21)OCC | 195 to 197
58 | OCc1ccccc1-c1noc2ccccc12 | 55
59 | COC(=O)c1cc(-c2ccc(OC)cc2)nn(CC(=O)Nc2ccc(SC)cc2)c1=O | 130 to 132
60 | CC(C)C1CC(=O)C(C(=O)NS(=O)(=O)c2ccccc2)C(=O)C1 (stereo unspecified) | 112 to 114
61 | CC(C)(C)CC(C)(C)c1ccc(O)c(-n2nc3ccccc3n2)c1 | 101 to 103
62 | ON=CCOc1ccc(Oc2ccccc2)cc1 | 102 to 105
63 | Cc1c(=O)[nH]c(=O)n2cc(C(=O)O)sc12 | > 205
64 | O=C1NC(=O)C(c2ccsc2)O1 (stereo unspecified) | 133 to 135
65 | COC(=O)Cc1ccc(OCc2nc(-c3ccccc3)oc2C)cc1 | 74 to 75
66 | COCCN(C)c1nccc(Oc2ccc(NC(=O)c3cc(F)cc(N4CCCCC4)c3)c3ccccc23)n1 | 81 to 82
67 | CCOC(=O)c1c(N2CCC(N(C)C)CC2)c2cc(C)ccc2n(Cc2ccccc2)c1=O | > 60
68 | COc1ccc2c(c1)CCC(C(=O)Cc1ccccc1)C2C#N (stereo unspecified) | 139 to 142
69 | CC(CCNC1=Nc2ccc(Br)c3cccc1c23)n1ccnc1 (stereo unspecified) | 240 to 241
70 | CCN1CC(=O)N(CC)c2cc(Nc3ncc(Cl)c(Nc4ccccc4S(=O)(=O)N(C)C)n3)c(OC)cc2C1 | 195 to 197
71 | CC(=CN(C)C)C(=O)c1cccc(C(F)(F)F)c1 | 53 to 55
72 | COC(=O)CC(=O)C=Cc1ccccc1 | 83

Row | SMILES | melting point [°C]
73 | CSCCOc1cc(N)c(Cl)cc1C(=O)O | 138 to 140
74 | CC(C)OC(=O)C(C)(C)c1cn2nc(Cl)ccc2n1 | 100 to 101
75 | CCOC(=O)C1=C(COCc2nc(CCN3C(=O)c4ccccc4C3=O)cs2)NC(C)=C(C(=O)OC)C1c1ccccc1Cl (stereo unspecified) | 156 to 157
76 | Cc1ccc(-c2ccc3c(c2)C=C(C(=O)Nc2ccc(C(O)c4ccccn4)cc2)CCO3)cc1 (stereo unspecified) | 215 to 217
77 | CCCSc1cc(S(N)(=O)=O)c(N)cc1Cl | 109 to 111
78 | CS(=O)(=O)c1ccc(-c2cc(=O)[nH]c(C(F)(F)F)c2-c2ccc(F)cc2)cc1 | 232 to 242
79 | CCOC(=O)c1cccc(NC(=O)NCC(=O)O)c1 | 174
80 | CCOC(CCc1c(N(C(C)=O)C(C)=O)nc(NC(C)=O)[nH]c1=O)OCC | 126 to 137
81 | O=C(CCCc1cccnc1)N1CCC(CC(c2ccc(F)cc2)c2ccc(F)cc2)CC1 | 108 to 110
82 | CCOC(=O)CN(CP(=O)(ONNc1ccccc1)ONNc1ccccc1)C(=O)C(F)(F)F | 113 to 116
83 | CC(=O)C(=O)Nc1ccc(C#N)c(C(F)(F)F)c1 | 147 to 148
84 | CSC(Nc1cccc(C#N)c1)=C(C#N)S(=O)(=O)c1ccc(Cl)cc1 | 168 to 170
85 | CC(=O)c1ccc(-c2cccnc2)s1 | 104 to 105
86 | COc1cccc2[nH]c3c(c12)CC(N(C)C)CC3 (stereo unspecified) | 185 to 189
87 | NNC(=O)CCSCCOC1OC(CO)C(O)C(O)C1O (stereo unspecified) | 178 to 179
88 | COc1cc(-c2nc(N)sc2CSC2CCCCC2)c(OC)cc1C | 143 to 144
89 | Nc1cc(C=O)nc(-c2ccc(C(F)(F)F)nc2)c1F | 166 to 167
90 | CN(CCC(=O)C(Cc1ccccc1)NC(=O)c1ccccc1)C(=O)N1CCCC1C(=O)O (stereo unspecified) | 38 to 68
91 | CC(CCc1nnn[nH]1)Oc1cccc(OCc2ccc3ccccc3n2)c1 (stereo unspecified) | 147 to 149
92 | COCc1c(C(=O)NN)ncc2[nH]c3cccc(OCc4ccccc4)c3c12 | 212 to 213
93 | c1ccc2c(c1)sc1nncn12 | 175 to 176
94 | N#CCS(=O)(=O)C=C1N(CCCN2CCCCC2)CCN1CCCN1CCCCC1 | 105 to 107
95 | ClCc1nc2nc(Cl)c(Cl)nc2s1 | 126 to 128
96 | CC(C)(C)c1cc(Oc2ccc([N+](=O)[O-])c(O)c2)ccc1Oc1ccc([N+](=O)[O-])c(O)c1 | 156 to 158
